≈ marks a conversion by molar mass, not a printed value.
Key:
[1] = system: guinea pig tracheal chain preparations; experiment: effect on spontaneous tone of guinea pig tracheal chain (ring) preparations, β-stimulant direct relaxant effect on airway smooth muscle; type: cell-based; conditions: for absolute separation ratio: atrial ED25 versus tracheal ED50, in vitro guinea pig preparations
Excerpt: (§1) Two in vitro test systems used for determining selective β-stimulant activity are: (1) effect on spontaneous tone of guinea pig tracheal chain preparations as a measure of β-stimulant (direct relaxant) effect on airway smooth muscle, and (2) effect on rate of spontaneously beating right atria of the guinea pig as a measure of β-stimulant effect on cardiac muscle.

guinea pig right atria = experiment: effect on rate of spontaneously beating right atria of the guinea pig, β-stimulant effect on cardiac muscle; type: cell-based; conditions: Cavia porcellus, in vitro, read-out: ED25, increasing the rate of contraction of guinea pig right atria
Excerpt: as §1

| EC50 ([1]; Cavia porcellus, in vitro, guinea pig tracheal ring preparation, read-out: ED50, relaxes the spontaneous tone of guinea pig tracheal ring preparation) | Structure (SMILES) | absolute separation ratio [1] | fold improvement of absolute separation ratio compared to d, l-isoproterenol ([1]; relative to d, l-isoproterenol (absolute separation ratio = 0.5)) | EC25 (guinea pig right atria) |
| --- | --- | --- | --- | --- |
| 0.00219 µg/mL (≈ 0.00659 µM) | CC(C)(C)NCC(O)COc1ccc(O)c(NS(C)(=O)=O)c1 (centres unmarked) [3-(4-hydroxy-3-methanesulfonamidophenoxy)-1-(tert-butylamino)-2-propanol] | 186 | 372 fold | 0.409 µg/mL (≈ 1.23 µM) |
|  | CC(C)NCC(O)c1ccc(O)c(O)c1 (stereo not drawn) [d, l-isoproterenol, reference compound] | 0.5 |  |  |

From patent US4004028A, “Phenoxypropanolamines” (SmithKline Corporation, priority 1975, dated 1977)
